{"source": "paper PMC7469689", "about": "“Substituted 4,5′-Bithiazoles as Catalytic Inhibitors of Human DNA Topoisomerase IIα” (Journal of Chemical Information and Modeling, 2020)", "key": {"human topo IIα [1]": {"target": "T1, human topo IIα (Homo sapiens, UniProt P11388)", "T1 construct": "purchased Inspiralis (Norwich, U.K.)", "T1 sequence (P11388 whole entry)": "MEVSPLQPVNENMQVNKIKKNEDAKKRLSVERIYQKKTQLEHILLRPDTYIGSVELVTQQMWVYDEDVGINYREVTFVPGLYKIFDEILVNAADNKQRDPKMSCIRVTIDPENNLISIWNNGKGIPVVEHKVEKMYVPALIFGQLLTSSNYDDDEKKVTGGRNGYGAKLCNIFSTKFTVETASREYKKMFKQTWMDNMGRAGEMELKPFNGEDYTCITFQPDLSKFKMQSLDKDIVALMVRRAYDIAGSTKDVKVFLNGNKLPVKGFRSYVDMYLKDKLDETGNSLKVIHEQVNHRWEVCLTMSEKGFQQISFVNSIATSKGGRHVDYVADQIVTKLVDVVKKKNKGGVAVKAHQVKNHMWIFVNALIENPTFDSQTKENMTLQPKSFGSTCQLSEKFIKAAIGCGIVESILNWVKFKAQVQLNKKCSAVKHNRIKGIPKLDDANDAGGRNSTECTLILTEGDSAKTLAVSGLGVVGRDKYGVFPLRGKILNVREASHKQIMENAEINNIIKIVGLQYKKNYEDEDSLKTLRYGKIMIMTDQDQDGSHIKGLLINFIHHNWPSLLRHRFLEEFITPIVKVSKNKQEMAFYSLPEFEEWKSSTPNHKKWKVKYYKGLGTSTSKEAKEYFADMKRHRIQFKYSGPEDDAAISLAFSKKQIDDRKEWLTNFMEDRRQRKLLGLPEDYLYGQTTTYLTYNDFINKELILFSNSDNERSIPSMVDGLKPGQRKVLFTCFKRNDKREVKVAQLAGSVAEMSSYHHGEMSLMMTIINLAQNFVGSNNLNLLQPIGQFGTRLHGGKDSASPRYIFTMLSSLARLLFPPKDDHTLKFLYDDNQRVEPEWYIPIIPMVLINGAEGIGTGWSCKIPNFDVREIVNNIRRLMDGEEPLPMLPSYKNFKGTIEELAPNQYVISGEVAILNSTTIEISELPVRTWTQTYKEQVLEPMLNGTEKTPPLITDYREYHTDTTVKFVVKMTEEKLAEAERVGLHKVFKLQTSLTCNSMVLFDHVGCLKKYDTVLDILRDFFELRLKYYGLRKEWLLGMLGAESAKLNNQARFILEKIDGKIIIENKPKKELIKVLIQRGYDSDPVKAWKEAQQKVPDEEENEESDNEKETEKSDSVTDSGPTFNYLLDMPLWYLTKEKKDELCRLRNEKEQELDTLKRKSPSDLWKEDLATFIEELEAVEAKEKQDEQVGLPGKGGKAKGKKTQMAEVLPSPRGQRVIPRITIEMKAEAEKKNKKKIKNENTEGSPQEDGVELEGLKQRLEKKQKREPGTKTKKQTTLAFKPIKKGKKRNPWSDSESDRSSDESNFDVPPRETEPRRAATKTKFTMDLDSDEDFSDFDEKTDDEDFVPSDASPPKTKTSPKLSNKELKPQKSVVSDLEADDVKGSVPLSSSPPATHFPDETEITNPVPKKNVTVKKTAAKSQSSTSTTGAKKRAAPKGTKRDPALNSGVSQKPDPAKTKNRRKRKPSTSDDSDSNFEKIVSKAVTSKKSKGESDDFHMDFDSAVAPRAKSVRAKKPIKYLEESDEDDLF", "assay": "HTS relaxation assay of human topo IIα", "format": "biochemical"}, "human topo IIα [2]": {"target": "T1, human topo IIα", "assay": "Human topo IIα-mediated cleavage assay", "format": "biochemical", "from_the_text": "To determine whether compounds act as catalytic inhibitors, a cleavage assay was next performed for compounds 1 and 9.\nWe performed the assay in collaboration with Inspiralis (Norwich, U.K.)."}, "Solubility observations": {"assay": "Solubility observations", "format": "physicochemical", "conditions": "500 μM; erratic readings"}, "human topo IIβ": {"target": "T2, human topo IIβ (Homo sapiens, UniProt Q02880)", "T2 construct": "purchased Inspiralis (Norwich, U.K.)", "T2 sequence (Q02880 whole entry, canonical isoform)": "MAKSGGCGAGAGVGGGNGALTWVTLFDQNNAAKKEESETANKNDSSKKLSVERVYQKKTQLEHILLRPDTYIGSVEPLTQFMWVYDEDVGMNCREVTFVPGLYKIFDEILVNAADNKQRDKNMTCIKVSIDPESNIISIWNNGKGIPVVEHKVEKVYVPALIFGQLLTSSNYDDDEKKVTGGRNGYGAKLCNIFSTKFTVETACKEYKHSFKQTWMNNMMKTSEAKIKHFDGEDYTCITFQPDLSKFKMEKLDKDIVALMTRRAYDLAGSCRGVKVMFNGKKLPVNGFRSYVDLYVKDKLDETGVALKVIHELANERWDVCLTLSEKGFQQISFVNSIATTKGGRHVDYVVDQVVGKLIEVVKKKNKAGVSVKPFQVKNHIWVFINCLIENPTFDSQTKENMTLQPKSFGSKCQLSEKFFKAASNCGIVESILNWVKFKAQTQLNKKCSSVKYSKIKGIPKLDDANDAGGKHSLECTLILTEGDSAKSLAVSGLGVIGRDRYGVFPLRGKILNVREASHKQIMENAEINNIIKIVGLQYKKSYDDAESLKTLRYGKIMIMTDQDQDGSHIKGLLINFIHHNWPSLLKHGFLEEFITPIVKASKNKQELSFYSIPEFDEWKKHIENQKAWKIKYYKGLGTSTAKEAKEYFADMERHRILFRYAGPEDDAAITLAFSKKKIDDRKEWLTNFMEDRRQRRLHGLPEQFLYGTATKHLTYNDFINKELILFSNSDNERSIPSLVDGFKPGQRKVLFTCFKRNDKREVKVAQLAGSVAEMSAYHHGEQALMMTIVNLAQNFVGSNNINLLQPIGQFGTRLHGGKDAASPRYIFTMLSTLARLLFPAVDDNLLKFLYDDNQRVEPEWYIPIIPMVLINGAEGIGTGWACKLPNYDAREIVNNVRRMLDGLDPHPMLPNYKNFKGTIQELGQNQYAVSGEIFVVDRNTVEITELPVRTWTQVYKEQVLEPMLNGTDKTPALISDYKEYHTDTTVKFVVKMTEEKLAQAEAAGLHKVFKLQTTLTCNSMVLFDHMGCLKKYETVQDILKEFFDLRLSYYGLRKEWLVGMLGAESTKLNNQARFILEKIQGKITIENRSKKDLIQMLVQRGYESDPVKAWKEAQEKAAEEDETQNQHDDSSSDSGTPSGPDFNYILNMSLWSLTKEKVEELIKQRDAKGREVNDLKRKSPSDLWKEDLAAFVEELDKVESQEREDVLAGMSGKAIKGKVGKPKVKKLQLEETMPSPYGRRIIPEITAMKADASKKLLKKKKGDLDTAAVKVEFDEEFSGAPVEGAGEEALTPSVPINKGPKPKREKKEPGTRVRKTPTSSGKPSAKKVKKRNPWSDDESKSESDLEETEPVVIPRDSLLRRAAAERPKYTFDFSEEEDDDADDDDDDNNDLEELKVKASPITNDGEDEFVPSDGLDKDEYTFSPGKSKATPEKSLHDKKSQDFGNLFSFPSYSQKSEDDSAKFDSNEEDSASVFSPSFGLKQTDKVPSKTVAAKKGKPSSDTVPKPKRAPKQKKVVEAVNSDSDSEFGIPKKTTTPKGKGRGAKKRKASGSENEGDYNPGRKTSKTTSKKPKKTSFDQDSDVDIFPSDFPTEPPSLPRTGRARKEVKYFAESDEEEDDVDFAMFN", "assay": "Human topo IIβ-mediated kDNA decatenation assay", "format": "biochemical", "experimental": "We were also interested in whether compounds can act on both isoforms of the human topo II. Thus, we performed human topo IIβ decatenation assays for compounds 1 and 9. […] (see also Tables S5 and S6 for more details).\n(§1) We made use of the human topo II decatenation assay kit from Inspiralis (Norwich, U.K.) to assess the ability of selected compounds to impede DNA decatenation.[89],[90] It was performed for topo IIα and topo IIβ isoforms using the protocol as described previously.[35]"}, "[3]": {"target": "T3, human topo IIα ATPase domain (Homo sapiens, UniProt P11388)", "T3 construct": "the ATPase domain of human topo IIα with 1–453 amino acid residues; purchased Inspiralis", "T3 sequence (P11388 1-453)": "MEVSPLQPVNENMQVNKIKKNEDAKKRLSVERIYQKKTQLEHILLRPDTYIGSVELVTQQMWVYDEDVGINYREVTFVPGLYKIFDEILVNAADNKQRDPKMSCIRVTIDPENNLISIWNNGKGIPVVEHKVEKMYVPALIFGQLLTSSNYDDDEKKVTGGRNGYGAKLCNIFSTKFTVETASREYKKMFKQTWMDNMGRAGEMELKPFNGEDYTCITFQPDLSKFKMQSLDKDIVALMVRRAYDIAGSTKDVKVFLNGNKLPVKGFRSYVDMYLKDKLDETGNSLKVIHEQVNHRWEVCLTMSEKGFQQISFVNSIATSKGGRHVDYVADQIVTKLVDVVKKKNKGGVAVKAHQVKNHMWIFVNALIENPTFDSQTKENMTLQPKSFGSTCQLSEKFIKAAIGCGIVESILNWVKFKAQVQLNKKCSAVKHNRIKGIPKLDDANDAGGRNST", "assay": "Microscale thermophoresis (MST) binding", "conditions": "truncated human topo IIα ATPase domain; three independent runs"}, "human topo IIα [4]": {"target": "T1, human topo IIα", "assay": "ATPase activity (ATP hydrolysis) assay, pyruvate kinase/lactate dehydrogenase coupled", "format": "biochemical"}, "HepG2 cells": {"test_system": "HepG2 cells", "assay": "Cell proliferation, Ki67 flow cytometry", "format": "cell-based, human", "conditions": "24 h, 50 μM"}, "human topo IIα [5]": {"target": "T1, human topo IIα", "assay": "Human topo IIα-mediated kDNA decatenation assay", "format": "biochemical", "experimental": "as §1"}, "[6]": {"conditions": "500 μM (compound 1: solubility problems, erratic readings)"}}}
{"compound": "Cc1nc(N)sc1-c1csc(Nc2ccc(C(F)(F)F)cc2)n1", "note": "[Compound 1]", "values": [{"measurement": "IC50", "setting": "human topo IIα [1]", "value": 33.4, "unit": "µM"}, {"measurement": "% Linear DNA (first column)", "setting": "human topo IIα [2]; 3.9 μM", "value": 8.05, "unit": "%"}, {"measurement": "% Linear DNA (second column)", "setting": "human topo IIα [2]; 3.9 μM", "value": 5.57, "unit": "%"}, {"measurement": "% Linear DNA (first column)", "setting": "human topo IIα [2]; 31.5 μM", "value": 6.32, "unit": "%"}, {"measurement": "% Linear DNA (second column)", "setting": "human topo IIα [2]; 31.5 μM", "value": 7.77, "unit": "%"}, {"measurement": "% Linear DNA (first column)", "setting": "human topo IIα [2]; 125 μM", "value": 3.02, "unit": "%"}, {"measurement": "% Linear DNA (second column)", "setting": "human topo IIα [2]; 125 μM", "value": 2.85, "unit": "%"}, {"measurement": "% Linear DNA (first column)", "setting": "human topo IIα [2]; 500 μM", "value": 2.45, "unit": "%"}, {"measurement": "% Linear DNA (second column)", "setting": "human topo IIα [2]; 500 μM", "value": 2.98, "unit": "%"}, {"measurement": "linear DNA formation in cleavage assay (in words)", "setting": "human topo IIα [2]; four concentrations", "value": "did not reveal a significant amount of linear DNA above the background level"}, {"measurement": "solubility in the ATPase assay", "setting": "Solubility observations", "value": "solubility problems"}, {"measurement": "inhibition of decatenation", "setting": "human topo IIβ; 125 μM", "value": "completely inhibited"}, {"measurement": "inhibition of decatenation", "setting": "human topo IIβ; 500 μM", "value": "completely inhibited"}, {"measurement": "Kd", "setting": "[3]", "value": "50.6 ± 7.6", "unit": "µM"}, {"measurement": "Percentage ATPase activity Run 1", "setting": "human topo IIα [4]; 3.9 μM", "value": 92.25, "unit": "%"}, {"measurement": "Percentage ATPase activity Run 2", "setting": "human topo IIα [4]; 3.9 μM", "value": 88.37, "unit": "%"}, {"measurement": "Percentage ATPase activity Run 1", "setting": "human topo IIα [4]; 31.5 μM", "value": 96.12, "unit": "%"}, {"measurement": "Percentage ATPase activity Run 2", "setting": "human topo IIα [4]; 31.5 μM", "value": 94.57, "unit": "%"}, {"measurement": "Percentage ATPase activity Run 1", "setting": "human topo IIα [4]; 125 μM", "value": 24.81, "unit": "%"}, {"measurement": "Percentage ATPase activity Run 2", "setting": "human topo IIα [4]; 125 μM", "value": 16.28, "unit": "%"}, {"measurement": "inhibition of topo IIα-mediated ATP hydrolysis (in words)", "setting": "human topo IIα [4]; 125 μM", "value": "almost fully inhibited"}, {"measurement": "Percentage ATPase activity Run 1", "setting": "human topo IIα [4]; [6]", "value": 65.12, "unit": "%"}, {"measurement": "Percentage ATPase activity Run 2", "setting": "human topo IIα [4]; [6]", "value": 36.43, "unit": "%"}, {"measurement": "cell proliferation (Ki67)", "setting": "HepG2 cells", "value": 65.1, "unit": "%"}, {"measurement": "% Decatenated Average", "setting": "human topo IIα [5]; 31.5 μM", "value": 80.9, "unit": "%"}, {"measurement": "inhibition of decatenation", "setting": "human topo IIα [5]; 125 μM", "value": "complete inhibition"}, {"measurement": "inhibition of decatenation", "setting": "human topo IIα [5]; 500 μM", "value": "complete inhibition"}]}
